According to patent US20200009118A1, “COMPOSITIONS AND METHODS FOR THE TREATMENTOF NEURODEGENERATIVE AND OTHER DISEASES” (Glialogix, Inc., priority 2017, published 2020):

Assays:
[1] = system: SOD1^G93A transgenic mice; experiment: Survival study in the SOD1 mouse model of ALS; type: in vivo; details: for Observed Days, Total Days: whole cohort
Description: High-copy SOD1^G93A transgenic mice were derived from the B6SJL-TgN(SOD1G93A)1Gur strain, obtained from The Jackson Laboratory (Bar Harbor, Me.) and originally produced by Gurney, e.g. Gurney et al., Science 264: 1772-1775 (1994). Animal experiments with the SOD1 model were performed at ALS Therapy Development Institute (herein “ALS-TDI”; Cambridge, Mass.). All mice were genotyped to verify copy number of the SOD1 transgene. Animal handling and study protocols were as previously described by ALS-TDI, e.g. Scott et al., Amyotroph. Lateral Scler. 9: 4-15 (2008).
Groups were balanced with respect to gender and body weight within gender. In addition, groups were age-matched and littermate-matched. […] Each cohort of was balanced between males and females.
5 mL of 0.1 N NaOH was added and the tube gently sonicated. Approximately 140 μL of 1 N HCl was then added to bring the pH to 8.00. The resulting 20 mg/mL solution was delivered by intraperitoneal injection at 10 ml/kg. Vehicle treated mice were administered saline.
Neurological scores were assessed daily from day 50 for both hind legs. The neurological score was based on a scale of 0 to 4. Criteria used to assign each score level are from Scott et al., Amyotroph. Lateral Scler. 9: 4-15 (2008) and are described in Table 2.
The date of definitive neurological disease was the day that the mouse first scored a “2” on the Neurological Score. Upon reaching a score of Neurological Score of “4”, mice were euthanized and the date of death was recorded.
Survival after onset of definitive neurological disease is defined as the total number of days the mice lived after reaching definitive neurological disease (Neurological Score of 2) and before death (Neurological Score of 4). Survival after onset of definitive neurological disease was analyzed in two ways.
The first day that a neurological score was determined was day 50 of age; measurements were collected daily afterwards until death.
The three categories were: (1) days spent before definitive neurological disease, e.g. with a neurological score of 0 or 1; (2) days spent during definitive neurological disease, e.g. with a neurological score of 2 or 3; and (3) days at death, e.g. with a neurological score of 4. By definition, mice were only in the dead state for 1 day, as they were euthanized upon reaching a neurological score of 4; this category was included as a positive control to ensure the integrity of the data and analysis.

[2] = system: multiple sclerosis patients; details: 2 grams per day, cited from earlier work
[3] = 2 g oral dose, people with ABCG2 genotype 421C/C; cited from earlier work
2D2-TCR MOG (2D2) mice = experiment: 2D2 mouse model of optic neuritis, myelin staining of the optic nerve; type: in vivo; details: for Number of animals, average myelin content score Low / Number of animals, average myelin content score high / Number of animals, average myelin content score moderate: sulfasalazine 200 mg/kg or memantine 5 mg/kg IP BID
Description: This model serves as an inducible model of optic neuritis with a high rate of penetrance. The development of optic neuritis was monitored by animal observation and histopathology.
Female 2D2 (strain C57BL/6-Tg(Tcra2D2,Tcrb2D2)1Kuch/J) and WT mice (C57BL/6) were purchased from The Jackson Laboratory. Each cohort size was 14 animals. Mice were delivered to Ophthy-DS (Kalamazoo, Mich.) under the supervision of Renovo Neural (Cleveland, Ohio) at 8-12 weeks of age and then acclimated for an additional 4 weeks before beginning the experiment. Animals were housed in pathogen-free, individually-ventilated, enriched cages on a 12 h:12 h light:dark cycle with food and water ad libitum. Mice were monitored daily for welfare and symptoms of optic neuritis.
After 4 weeks of acclimation, animals were randomized by weight into 4 groups of 14 animals each. To induce optic neuritis, 200 ng of Pertussis toxin was injected into the 2D2 animals on days 1 and 3 as described by Guan et al. Dosing of vehicle or treatment compounds began at day 1. The four cohorts are: • (1) WT mice (C57BL/6) treated with vehicle (200 μl saline IP, BID). This cohort serves as a control for the readouts of optic neuritis disease. • (2) 2D2 mice vehicle treated with vehicle (200 μl saline IP, BID). […] The memantine-treated group served as a control for anti-glutamatergic therapy in the 2D2 model of optic neuritis.
On day 30, animals were euthanized and perfused. Optic nerves and retinas were dissected out and embedded in paraffin and sections mounted on slides. 5-7 sections of the optic nerve (from one eye) from ten animals in each cohort were stained by Toluidine Blue. Histopathological analysis of the slides and quantitation of the myelin staining intensity was performed blinded by a board-certified pathologist, Dr. Igor Polyakov (Minneapolis, Minn.). Staining intensity of each slide was graded as either low, moderate or high. Both peripheral and central sections of the optic nerve were graded. The intensity of the myelin staining between the cohorts on a per section and a per animal basis was compared using chi-square and Fishers' exact test with a p<0.05 considered significant.
On a per animal basis, this yielded 20 scores per cohort: average score per section×2 scores per animal (peripheral or central)×10 animals per cohort. On a per section basis, this yielded approximately 110 score per cohort: score per section×5-7 sections per animal×2 scores per section (peripheral or central)×10 animals per cohort.

[4] = 200 mg/kg IP two times per day from age 50 days
[5] = Before definitive disease onset (neurological score = 0 or 1)
[6] = Definitive neurological disease (neurological score = 2 or 3)
[7] = Total (central + peripheral, 20 scores), day 30
[8] = per section basis, Central Region, day 30
[9] = per section basis, Peripheral Region, day 30
[10] = per section basis, Total, day 30

Structure (SMILES): O=C(O)c1cc(/N=N/c2ccc(S(=O)(=O)Nc3ccccn3)cc2)ccc1O [Sulfasalazine, 2-hydroxy-5-[(E)-2-{4-[(pyridin-2-yl)sulfamoyl]phenyl}diazen-1-yl]benzoic acid]
- Mean Day of Death ([1]; 200 mg/kg IP two times per day): 132.6
- Mean Day of Definitive Neurological Disease ([1]; 200 mg/kg IP two times per day): 115.2
- Total Days of Survival after Onset of Definitive Disease ([1]; 200 mg/kg IP two times per day): 17.4 days
- increase in median absolute survival [1, 4]: 3.5 days
- increased absolute lifespan [1, 4]: 2.7%
- time of disease onset [1, 4]: no statistical effect
- increase in median absolute survival ([1]; 200 mg/kg IP two times per day from age 50 days, listed as sulfasalazine formulation): 3.7 days
- effect on absolute survival, greater than riluzole ([1]; 2.7% vs. […] increased absolute lifespan): 68%
- Observed Days Minus Expected Days [1, 5]: -14 days
- Observed Days, Total Days [1, 5]: 1708 days
- Observed Days Minus Expected Days ([1]; Death (neurological score = 4)): 0 days
- Observed Days, Total Days ([1]; Death (neurological score = 4)): 27 days
- Observed Days Minus Expected Days [1, 6]: 112 days
- Observed Days, Total Days [1, 6]: 413 days
- Observed Days Minus Expected Days ([1]; Total Observations (Days)): 98 days
- Observed Days, Total Days ([1]; Total Observations (Days)): 2148 days
- Mean Day of Death, Absolute Change ([1]; vs. vehicle): 3.7
- Mean Day of Death, Percent Change ([1]; vs. vehicle): 2.9%
- Mean Day of Definitive Neurological Disease, Absolute Change ([1]; vs. vehicle): −1.2
- Mean Day of Definitive Neurological Disease, Percent Change ([1]; vs. vehicle): −1.0%
- Total Days of Survival after Onset of Definitive Disease, Absolute Change ([1]; vs. vehicle): 4.9 days
- Total Days of Survival after Onset of Definitive Disease, Percent Change ([1]; vs. vehicle): 39.2%
- Total Days of Survival after Onset of Definitive Disease, Percent Change ([1]; vs. vehicle, listed as Sulfasalazine formulation): 39%
- accumulation of disability ([2]; P-MS subgroup): statistically significant reduction in their accumulation of disability
- disease progression ([2]; RR-MS sub-group): did not slow disease progression
- time plasma levels above 10 μg/ml were maintained [3]: approximately 7 hours
- Number of animals, average myelin content score Low (2D2-TCR MOG (2D2) mice; Central Region, day 30): 0
- Number of animals, average myelin content score high (2D2-TCR MOG (2D2) mice; Central Region, day 30): 4
- Number of animals, average myelin content score moderate (2D2-TCR MOG (2D2) mice; Central Region, day 30): 6
- Number of animals, average myelin content score Low (2D2-TCR MOG (2D2) mice; Peripheral Region, day 30): 1
- Number of animals, average myelin content score high (2D2-TCR MOG (2D2) mice; Peripheral Region, day 30): 4
- Number of animals, average myelin content score moderate (2D2-TCR MOG (2D2) mice; Peripheral Region, day 30): 5
- Number of animal scores, myelin content High (2D2-TCR MOG (2D2) mice; [7]): 8
- Number of animal scores, myelin content Low (2D2-TCR MOG (2D2) mice; [7]): 1
- Number of animal scores, myelin content Moderate (2D2-TCR MOG (2D2) mice; [7]): 11
- myelin content compared to the vehicle-treated 2D2 animals (2D2-TCR MOG (2D2) mice; optic nerve, day 30): highly significant increase in myelin content
- Number of sections, myelin content Low (2D2-TCR MOG (2D2) mice; [8]): 0
- Number of sections, myelin content high (2D2-TCR MOG (2D2) mice; [8]): 19
- Number of sections, myelin content moderate (2D2-TCR MOG (2D2) mice; [8]): 38
- Number of sections, myelin content Low (2D2-TCR MOG (2D2) mice; [9]): 8
- Number of sections, myelin content high (2D2-TCR MOG (2D2) mice; [9]): 21
- Number of sections, myelin content moderate (2D2-TCR MOG (2D2) mice; [9]): 28
- Number of section scores, myelin content High (2D2-TCR MOG (2D2) mice; [10]): 40
- Number of section scores, myelin content Low (2D2-TCR MOG (2D2) mice; [10]): 8
- Number of section scores, myelin content Moderate (2D2-TCR MOG (2D2) mice; [10]): 66
- Percent scores, Myelin content-Total High (2D2-TCR MOG (2D2) mice; per-animal basis): 40%
- Percent scores, Myelin content-Total Low (2D2-TCR MOG (2D2) mice; per-animal basis): 5%
- Percent scores, Myelin content-Total Moderate (2D2-TCR MOG (2D2) mice; per-animal basis): 55%
- Percent scores, Myelin content-Total High (2D2-TCR MOG (2D2) mice; per-section basis): 35%
- Percent scores, Myelin content-Total Low (2D2-TCR MOG (2D2) mice; per-section basis): 7%
- Percent scores, Myelin content-Total Moderate (2D2-TCR MOG (2D2) mice; per-section basis): 58%
